# Source: paper PMC9317696, “New Benzil and Isoflavone Derivatives with Cytotoxic and NO Production Inhibitory Activities from Placolobium vietnamense” (Molecules, 2022)
# Read-outs that look alike come from different tables or passages of the source.
# Legend:
# Assay type in all cases: cell-based
# [1] = test system: NO production in macrophage RAW 264.7 cells; assay: Inhibition of LPS-induced NO production in RAW 264.7 macrophages (Griess); settings: Mus musculus
# Experimental: (§1) RAW 264.7 cells were stocked in Dulbecco’s Modified Essential and grown at the condition of 37 °C in DMEM supplemented with 10% heat-inactivated FBS, streptomycin sulfate (100 µg/mL), and penicillin (100 units/mL) in a humidified environment of 5% CO2. The RAW 264.7 cells were pre-incubated every two days.
# The RAW 264.7 cells were stimulated with or without 1 μg/mL of LPS (lipopolysaccharide), which was purchased from Sigma Chemical Co. (St. Louis, MO, USA), for 24 h with or without 0.5% DMSO, celastrol, and isolated compounds at the indicated concentrations. The culture supernatant (100 μL) was then reacted with 100 μL of Griess reagent. After the Griess assay, the remaining cells were used to screen for their viability using colorimetric assay-MTT (Sigma Chemical Co., St. Louis, MO, USA).
# Hep G2 cells = assay: Cytotoxicity assay (MTT) against Hep G2 cell line; settings: Homo sapiens
# Experimental: According to a previous procedure, the cytotoxic evaluation of 1–8 against the growth of human hepatocellular carcinoma (Hep G2) cell line was carried out. The positive control was ellipticine, a powerful anticancer medication with various modes of action. The cancer cells were grown in Dulbecco’s Modified Essential Medium (DMEM) at 37 °C in a 5 % CO2 environment with 10% fetal bovine serum (FBS), 1% penicillin and streptomycin, and 1% L-glutamine. The investigated compounds were added at concentrations ranging from 0.5 to 128 µg/mL by dissolving in DMSO (20 mg/mL), and the incubation was carried out once more for 72 h under the same conditions. Following the procedure, an MTT solution (10 µL, 5 mg/mL) was added to each well. The percentage of cell viability vs. sample concentration was plotted using SigmaPlot 10 (Systat Software Inc., San Jose, CA, USA) to calculate the IC50 values.
# [2] = Cell viability assay (MTT) on RAW 264.7 cells; settings: mouse, read-out: cytotoxicity toward RAW 264.7 cells IC50
# Experimental: as §1
# The cell viability assay was used to determine the cytotoxic effect of the isolated compounds on RAW 264.7 cells. At a density of 1 × 10^5 cells per well, RAW 264.7 cells were seeded on a 96-well plate and allowed to adhere for 4 h. Then, the cells were treated with 0.5% DMSO, celastrol, and isolated compounds at the indicated concentrations. Celastrol was used as a positive control. After incubating 24 h, the viable cells were measured with a colorimetric assay based on the mitochondria’s ability in viable cells to reduce MTT [18]. The viability cells were treated with vehicle only and were defined as 100% viable. [OD570 (treated cell culture) × 100]/OD570 was the formula used to determine the percentage of macrophage surviving cells after treatment (vehicle control).
# [3] = HepG2, 72 h, read-out: Cytotoxicity (IC50, µM)
# [4] = RAW264.7, RAW 264.7 cells, 1 μg/mL LPS, 24 h, Griess reagent, mean of three experiments ± SD, read-out: NO Production (IC50)
SMILES,"IC50 [1, 4] [µM]","IC50 ([1]; RAW264.7, 24 h, read-out: NO Production (IC50, µM)) [µM]",IC50 (Hep G2 cells; [3]) [µM],IC50 at 24 h [2] [µM],"IC50 (Hep G2 cells; HepG2, Hep G2 cells, 72 h, MTT, mean of three experiments ± SD, read-out: Cytotoxicity (IC50)) [µM]"
"CC1=C(O)C(=O)C=C2C1=CC=C1[C@@]2(C)CC[C@@]2(C)[C@@H]3C[C@](C)(C(=O)O)CC[C@]3(C)CC[C@]12C [Celastrol, celastrol, reference compound]",,1 ± 0.1,,,
"COc1ccc(-c2coc3c4c(c(OC)cc3c2=O)OC(C)(C)CC4)cc1 [Compound 1, placovinone A]",13.7 ± 0.5,,8 ± 0.2,79.2,
"COc1cc(OC)c(C(=O)C(=O)c2cc(OC)c3c(c2O)C=CC(C)(C)O3)cc1OC [Compound 2, placovinone B]",31 ± 0.3,,19.8 ± 1.5,,
"COc1cc(OC)c(OC)cc1CC(=O)c1cc(OC)c2c(c1O)C=CC(C)(C)O2 [Compound 3, placovinone C]",47.4 ± 0.3,,22.9 ± 0.5,,
"Cc1c2ccncc2c(C)c2c1[nH]c1ccccc12 [Ellipticine, ellipticine, reference compound]",,,,,0.43 ± 0.03

# Second part, led by results:
"IC50 [1, 4] [µM]",SMILES,"IC50 ([1]; RAW264.7, 24 h, read-out: NO Production (IC50, µM)) [µM]",IC50 (Hep G2 cells; [3]) [µM],IC50 at 24 h [2] [µM],"IC50 (Hep G2 cells; HepG2, Hep G2 cells, 72 h, MTT, mean of three experiments ± SD, read-out: Cytotoxicity (IC50)) [µM]"
15.5 ± 0.4,"COc1ccc(CC(=O)c2cc(OC)c3c(c2O)C=CC(C)(C)O3)cc1 [Compound 4, placovinone D]",,23.4 ± 0.5,42.6,
> 100,"COc1cc2c(cc1-c1coc3c4c(c(OC)cc3c1=O)OC(C)(C)C=C4)OCO2 [Compound 5, ichthynone]",,99.1 ± 0.9,,
> 100,"COc1cc2c(=O)c(-c3ccc4c(c3)OCO4)coc2c2c1OC(C)(C)C=C2 [Compound 6, durmillone]",,71.6 ± 0.6,,
> 100,"CC1(C)C=Cc2c(ccc3c(=O)c(-c4ccc5c(c4)OCO5)coc23)O1 [Compound 7, calopogoniumisoflavone B]",,66.6 ± 0.5,,
54.7 ± 0.2,"COc1ccc(-c2coc3c4c(ccc3c2=O)OC(C)(C)C=C4)cc1OC [Compound 8, 4′,5′-dimethoxy-6,6-dimethylpyranoisoflavone]",,35.6 ± 0.3,,
